Biological target: T1, calf intestinal alkaline phosphatase (Bos taurus, UniProt P19111)
T1 construct: purchased USB
Assay: Enzymatic removal of 2′ phosphate blocking group with alkaline phosphatase
Format: biochemical
Details: aqueous buffer, room temperature

T1 sequence (P19111 20-506): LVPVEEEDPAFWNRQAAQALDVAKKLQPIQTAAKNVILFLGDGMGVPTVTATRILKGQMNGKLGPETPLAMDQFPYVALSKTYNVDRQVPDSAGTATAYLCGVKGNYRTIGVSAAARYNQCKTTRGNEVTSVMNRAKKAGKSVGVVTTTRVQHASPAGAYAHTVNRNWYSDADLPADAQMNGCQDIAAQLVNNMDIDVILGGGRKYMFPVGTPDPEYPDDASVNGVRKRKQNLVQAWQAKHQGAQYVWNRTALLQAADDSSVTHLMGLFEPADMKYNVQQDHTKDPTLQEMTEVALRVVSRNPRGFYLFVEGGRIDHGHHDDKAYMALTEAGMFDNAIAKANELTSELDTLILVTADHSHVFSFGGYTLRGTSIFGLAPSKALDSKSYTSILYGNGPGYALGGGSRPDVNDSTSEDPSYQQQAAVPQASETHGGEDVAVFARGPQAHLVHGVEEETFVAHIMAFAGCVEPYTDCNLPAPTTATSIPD

O=c1ccn(C2OC(COP(=O)(O)OP(=O)(O)OP(=O)(O)O)C(O)C2OP(=O)(O)O)c(=O)[nH]1 (stereo not shown) [2′ reversible terminator, 2′-phosphate UTP]
removal of the phosphate blocking group: can be quantitatively removed using alkaline phosphatase in less than one minute

— patent US9051612B2, “Compositions and methods for nucleotide sequencing” (Illumina, Inc., priority 2006, dated 2015)
